Experiments:
PHA-stimulated PBMCs = test: MTT cell proliferation assay in PHA-stimulated PBMCs; type: cell-based, human
Protocol: The effect of RV and […] on PBMC proliferation at the concentrations shown to enhance the anti-HIV effect of ddI were examined. Cellular proliferation in culture in the presence or absence of drugs was measured by commercial MTT assay, according to the manufacturer's instructions (Boehringer Mannheim). Cell viability was determined by trypan blue staining.
Proliferation was measured on PHA-stimulated PBMCs cultured in the presence of IL-2, 2 μM ddI, and RV or HU. The MTT assay was performed on days 2 and 5 (FIG. 8), and days 2 and 7 (FIG. 20) after the addition of the drugs. […] On day 5, RV at 10 μM inhibited proliferation by 30%, whereas HU inhibited proliferation by 40 to 50%, depending on the donor.
Proliferating PBMCs were cultured in the presence of RV or HU for 5 days. On day 2 and 5 an MTT assay and a ^3H-thymidine incorporation assay were performed. The MTT is a […] assay that measures cellular metabolic activity and directly correlates to the number of cells in the culture. The ^3H-thymidine incorporation assay relies on the incorporation of the radioactive nucleoside ^3H-thymidine into newly synthesized DNA. […] These differences between the effects of RV and HU were even more striking in the MTT and ^3H-thymidine incorporation assays conducted on day 5 (FIG. 12 and FIG. 13, respectively).

[1] = system: clinical isolates of HIV-1 (EJC-1 to EJC-4); test: p24 antigen production in activated PBMCs infected with clinical isolates; type: cell-based
Protocol: For infection studies involving PBMCs, cells were stimulated with 2.5 or 10 μg/ml phytohemagglutinin (PHA; Boehringer Mannheim, Indianapolis, Ind.) for 3 days. Stimulated PBMCs were infected by incubation with virus at a multiplicity of infection of 1000 TCID50/10^6 PBMC for 2 hours. PBMCs were then washed three times with PBS and cultured in 5% CO2 at 37° C., in RPMI/10% FBS supplemented with 10 units/ml IL-2 (Boehringer Mannheim) and drugs as appropriate. PBMCs were seeded in 96-well flat-bottom plates at a density of 2×10^5 PBMCs/200 μl. Following 3 days of culture half of the medium was replaced with fresh medium containing IL-2 and drugs. After 7 days of culture, HIV-1 p24 antigen production in the culture supernatant was assayed by ELISA (Coulter, Hialeah, Fla.). The concentration of nucleoside analog, alone and in combination with resveratrol, that reduced the p24 antigen value of the untreated control by 90% (IC90) was calculated by using nonparametric regression analysis. The analysis used the median-effect equation, Fa=1/[1+(Dm/D)]^m, where D is the dose, Fa is the fraction affected, and Dm is the dose required to produce the median effect.
The increase of ddI-antiviral activity by RV was next evaluated in a panel of clinical isolates of HIV-1. […]

Row | SMILES | impact on cell proliferation (PHA-stimulated PBMCs; 5 μM RV, with IL-2 and 2 μM ddI) | OD values in the MTT assay (PHA-stimulated PBMCs; 10 μM RV, day 7, with IL-2 and 2 μM ddI) | MTT values (PHA-stimulated PBMCs; RV 10 μM, day 2, no ddI) | inhibition of proliferation (PHA-stimulated PBMCs; RV 10 μM, day 2, with IL-2 and 2 μM ddI) | inhibition of proliferation (PHA-stimulated PBMCs; RV 10 μM, day 5, with IL-2 and 2 μM ddI) [%] | enhancement of antiviral activity of ddI ([1]; 1 μM ddI plus 5 μM RV, depending on the clinical isolate) | enhancement of ddI activity ([1]; 1 μM ddI plus 10 μM RV)
1 | Oc1ccc(/C=C/c2cc(O)cc(O)c2)cc1 [RV, trans-3, 4′, 5-trihydroxystilbene] | Minimal impact on cell proliferation | higher than those obtained with 100 μM HU | slightly lower than the untreated control | inhibited proliferation slightly | 30 | – | –
2 | OC[C@@H]1CC[C@H](n2cnc3c(O)ncnc32)O1 [ddI, 2′,3′-dideoxyinosine] | – | – | – | – | – | 18-185 fold | 88-1200 fold
